Measurements from publication PMC7061854, “Population Pharmacokinetics of Caspofungin and Dosing Optimization in Children With Allogeneic Hematopoietic Stem Cell Transplantation” (Frontiers in Pharmacology, 2020).
In brackets after ≈: the same amount, converted by molar mass. Read-outs that look alike come from different tables or passages of the source.

Assays:
C. parapsilosis [1] = conditions: ref Pfaller et al.; cited from earlier work
Experimental: Table 4 The area under the concentration-time curve (AUC)/minimal inhibitory concentration (MIC) target probability of target attainment (PTA) values(%) against Candida albicans, Candida glabrata, and Candida parapsilosis for caspofungin in pediatric patients. | column: AUC/MIC target PTA(%) / C. parapsilosis MIC90 = 0.5 mg/L / Fungistatic target || Two simulation procedures were performed to calculate the probability of PK/PD target attainment with different dosing regimens based on the final model. One of the procedure is fixed MIC value of Candida app. to simulated the clinical efficacy of the different drug regimens of caspofungin in infants, children (age 2–11 years), and adolescents (age 12–14 years). According to the literature report, the MIC90 value for C. albicans, C. glabrata, and C. parapsilosis are 0.03, 0.06, and 0.5 mg/L ([Pfaller et al.]). Another simulation procedure is not fixed MIC values. The loading doses of caspofung ...

C. albicans [2] = conditions: ref Pfaller et al.; cited from earlier work
Experimental: Table 4 The area under the concentration-time curve (AUC)/minimal inhibitory concentration (MIC) target probability of target attainment (PTA) values(%) against Candida albicans, Candida glabrata, and Candida parapsilosis for caspofungin in pediatric patients. | column: AUC/MIC target PTA(%) / C. albicans MIC90 = 0.04 mg/L / Fungistatic target || Two simulation procedures were performed to calculate the probability of PK/PD target attainment with different dosing regimens based on the final model. One of the procedure is fixed MIC value of Candida app. to simulated the clinical efficacy of the different drug regimens of caspofungin in infants, children (age 2–11 years), and adolescents (age 12–14 years). According to the literature report, the MIC90 value for C. albicans, C. glabrata, and C. parapsilosis are 0.03, 0.06, and 0.5 mg/L ([Pfaller et al.]). Another simulation procedure is not fixed MIC values. The loading doses of caspofung ...

C. parapsilosis [3] = assay: MIC of the isolate cultured from bronchoalveolar lavage fluid; assay type: cell-based, Candida parapsilosis; conditions: isolate of one failed prophylaxis case
Experimental: In this study, 48 patients received caspofungin (loading dose of 70 mg/m^2 followed by 50 mg/m^2) as prophylaxis for fungal infections for a period of HSCT. The diagnosis of IFI mainly relied on a chest computed tomography (CT), clinical symptoms, blood culture, G test, and GM test. Patients were considered a probable IFI case with a chest CT scan positive for a halo or air crescent sign and large mass flocculent shadow. Routine blood culture, as long as the patients who receive bronchoscopy are all sent to receive bronchoalveolar lavage fluid culture meanwhile high throughput sequencing to find the pathogenic bacteria. […] The culture of bronchoalveolar lavage fluid was negative in three cases for consecutive two times and positive for C. parapsilosis in one case that was identified as C. parapsilosis infection (MIC = 0.5 mg/L). The median ± standard deviation of AUC24 in successful and failed cases group are 394.93 ± 91.14 mg·h/L and 352.08 ± 24.43 mg·h/L (t = 0.929, P = 0.358) at the loading dose, 300.37 ± 88.3 mg·h/L and 247.71 ± 33.67 mg·h/L (t = 1.175, P = 0.246) at the maintenance dose respectively. […] They were much lower than fungicidal target AUC24/MIC ratios ⩾ 1185 for C. parapsilosis. At the maintenance dose AUC24/MIC ratios were lower than the fungistatic target AUC24/MIC ratios ⩾ 559 for C. parapsilosis, which might lead to the failure of preventive treatment.

[4] = median, children 2–12 years old, two-compartment model; ref Yang et al., 2019; cited from earlier work
Description: Others reported weight and disease state had significant effects on caspofungin PKs in pediatric patients ([Li et al., 2011]). Xin-Mei Yang studied the PK of caspofungin in children (2–12 years old).

clinical = assay type: in vivo, human; conditions: for AUC(0-t) / clearance: human, in vivo, iv; for AUC(0-t): median ± standard deviation, read-out: AUC24
Experimental: A prospective, open-label pharmacokinetic study of caspofungin was performed at Wuhan Children's Hospital, Hubei Province. All designed procedures conformed to the legal requirements and the ethics committee of Wuhan Children's Hospital approved this study.
(§1) Caspofungin has been approved for use in patients with IFI that requiring prevention treatment, especially for patients undergoing allo-HSCT. In total, 48 patients, received allo-HSCT, fulfilled the enrollment criteria and provided informed in the model building group between July 2017 and March 2019. They received caspofungin as a 1-h intravenous infusion on the basis of body surface area (BSA) with 50 mg/m^2 maintenance dose daily followed by 70 mg/m^2 loading dose on day 1.
We performed an opportunistic sampling strategy when a steady-state caspofungin concentration had been achieved. Plasma was placed on ice and centrifuged (15,000 rpm for 5 min at +4°C) immediately and then stored at −80°C prior to analysis. Then we recorded the dosing and infusion time as well as sampling time prospectively.
Caspofungin concentrations were detected by a high-performance liquid chromatography method (Agilent Technologies Inc., 1260 infinity) with ultraviolet (UV) performed on detection by fluorescence. The excitation wavelength was 220 nm, the column temperature was 30 °C, and the pump flow rate was 0.8 ml/min. A solution of 42% acetonitrile was used as the mobile phase. We employed 0.5 ml of serum loaded on solid-phase extraction column (Agela Technologies, Cleanert ODS C18, 200 mg/3 ml) and then eluted with 60% acetonitrile. An Innoval C18 column (Agela Technologies, 10 μm, 4.6 × 250 mm) was used for separation. The calibration curve ranged from 0.6 to 20 mg/L. The inter- and intra-assay coefficients of variation of controls were all less than 5%. The lower limit of quantification (LLOQ) was 0.6 mg/L.
The PopPK study was performed by applying the non-linear mixed-effect modeling program Phoenix NLME (Version 8.1, Pharsight Corporation) and R program (Version 3.5.1, http://www.r-project.org/).
We tried to describe the pharmacokinetic process of caspofungin in vivo by using the one- or two-compartment models. The scale model and exponential model were adopted for intra-individual variation and inter-individual variation respectively. A forward and backward selection process was used for covariate analysis. The effects of demographic characteristics including age, body weight (WT), height, BSA, biological parameters including uric acid (UA), serum cystatin C (Cys-C), estimated glomerular filtration rate (eGFR), alanine aminotransferase (ALT), aspartate aminotransferase (AST), and gama-glutamyltranspeptidase (gama-GT) that were investigated as potential covariates on PK parameters. eGFR was calculated according to the modified Schwarta formula ([Schwartz et al., 2009]). Mosteller formula was used to calculate the body surface area (BSA) as follows ([Yang et al., 2019]):
BSA(m^2)=[height(cm)×weight(kg)/3600]^1/2
During the forward selection step, the covariate causing the objective function value (OFV) decreased more than 3.84 (P < 0.05, χ2 distribution, df = 1), the covariate was included into the model, thereafter we tested the remaining covariates.
In this study, goodness-of-fit plots, bootstrap, visual predictive check (VPC), and normalized prediction distribution errors (NPDEs) were adopted to model validation. Bootstrap resampling 1,000 times in the modeling data, and the model was established with the sampling data set. We compared the similarity between bootstrap model parameters and the parameters in final model. VPC simulated 1,000 virtual data with the final model and analyze whether the 95% confidence interval (CI) of the simulated data contains the original data. NPDEs also adopted simulation technology and simulated 1,000 times based on the final model to investigated the distribution of the standard error and perform the normal distribution test.

[5] = tested on: invasive fungal infections (IFI); assay: Clinical outcome of caspofungin prophylaxis for fungal infections during HSCT; assay type: in vivo, human
Experimental: as §1
In this study, 48 patients received caspofungin (loading dose of 70 mg/m^2 followed by 50 mg/m^2) as prophylaxis for fungal infections for a period of HSCT. The diagnosis of IFI mainly relied on a chest computed tomography (CT), clinical symptoms, blood culture, G test, and GM test. Patients were considered a probable IFI case with a chest CT scan positive for a halo or air crescent sign and large mass flocculent shadow. Routine blood culture, as long as the patients who receive bronchoscopy are all sent to receive bronchoalveolar lavage fluid culture meanwhile high throughput sequencing to find the pathogenic bacteria. […] The culture of bronchoalveolar lavage fluid was negative in three cases for consecutive two times and positive for C. parapsilosis in one case that was identified as C. parapsilosis infection (MIC = 0.5 mg/L). […]

C. glabrata [6] = conditions: ref Pfaller et al.; cited from earlier work
Experimental: Table 4 The area under the concentration-time curve (AUC)/minimal inhibitory concentration (MIC) target probability of target attainment (PTA) values(%) against Candida albicans, Candida glabrata, and Candida parapsilosis for caspofungin in pediatric patients. | column: AUC/MIC target PTA(%) / C. glabrata MIC90 = 0.06 mg/L / Fungistatic target || Two simulation procedures were performed to calculate the probability of PK/PD target attainment with different dosing regimens based on the final model. One of the procedure is fixed MIC value of Candida app. to simulated the clinical efficacy of the different drug regimens of caspofungin in infants, children (age 2–11 years), and adolescents (age 12–14 years). According to the literature report, the MIC90 value for C. albicans, C. glabrata, and C. parapsilosis are 0.03, 0.06, and 0.5 mg/L ([Pfaller et al.]). Another simulation procedure is not fixed MIC values. The loading doses of caspofung ...

C. albicans [7] = conditions: ref Andes et al., 2010; cited from earlier work
Description: (§2) The likely success of treatment identified with the probability of target attainment (PTA) by comparing the pharmacodynamic exposure against an minimal inhibitory concentration (MIC) distribution. […] A PK/PD target was defined as the ratio AUC24/MIC for candidiasis. […] Fungistatic ...

C. glabrata [8] = conditions: ref Andes et al., 2010; cited from earlier work
Description: as §2

[9] = Bayesian estimates, mean ± SD, all children, SD
[10] = patients with mild liver dysfunction (40 U/L < AST ⩽ 120 U/L)
[11] = patients with normal liver function

SMILES: CC[C@H](C)C[C@H](C)CCCCCCCCC(=O)N[C@H]1C[C@@H](O)[C@@H](NCCN)NC(=O)[C@@H]2[C@@H](O)CCN2C(=O)[C@H]([C@H](O)CCN)NC(=O)[C@H]([C@H](O)[C@@H](O)c2ccc(O)cc2)NC(=O)[C@@H]2C[C@@H](O)CN2C(=O)[C@H]([C@@H](C)O)NC1=O [caspofungin, Caspofungin]
- MIC90 (C. parapsilosis [1]): 0.5 µg/mL (≈ 0.457 µM)
- MIC90 (C. albicans [2]): 0.03 µg/mL (≈ 0.0274 µM)
- MIC (C. parapsilosis [3]): 0.5 µg/mL
- CL [4]: 0.21 L/h/m^2
- central volume distribution [4]: 2.23 L/m^2
- θ1 Bootstrap analysis Median Estimate (clinical; 1,000-run bootstrap): 0.91
- θ2 Bootstrap analysis Median Estimate (clinical; 1,000-run bootstrap): −0.25
- BSA-normalized CL (clinical; [9]): 0.19 ± 0.04 L/m^2/h
- BSA-normalized Vd (clinical; [9]): 1.72 ± 0.01 L/m^2
- BSA-normalized CL (clinical; adolescents, age 12–14 years, two severe liver dysfunction patients excluded): 0.178 ± 0.039 L/m^2/h
- BSA-normalized CL (clinical; children, age 2–11 years, two severe liver dysfunction patients excluded): 0.187 ± 0.031 L/m^2/h
- θ1 (exponent for BSA as covariate) Final model Estimate (clinical; final PopPK model): 0.89
- θ2 (exponent for lnAST as covariate for CL) Final model Estimate (clinical; final PopPK model): −0.23
- AUC(0-t) (clinical; 50 mg/m2, failed cases group, at the maintenance dose (50 mg/m^2), SD): 248 ± 33.7 µg·h/mL
- AUC(0-t) (clinical; 50 mg/m2, successful cases group, at the maintenance dose (50 mg/m^2), SD): 300 ± 88.3 µg·h/mL
- AUC(0-t) (clinical; 70 mg/m2, failed cases group, at the loading dose (70 mg/m^2), SD): 352 ± 24.4 µg·h/mL
- AUC(0-t) (clinical; 70 mg/m2, successful cases group, at the loading dose (70 mg/m^2), SD): 395 ± 91.1 µg·h/mL
- clearance (clinical; [10]): 1.95 mL/min
- clearance (clinical; [11]): 2.67 mL/min
- BSA-normalized CL (clinical; infants, two severe liver dysfunction patients excluded): 0.190 ± 0.015 L/m^2/h
- θVd (L) Final model Estimate (clinical; one-compartment PopPK model, typical value, 48 children with allo-HSCT, Vd = 1.36 × (BSA/0.79)): 1.36 L
- θCL (L·h^−1) Final model Estimate (clinical; one-compartment PopPK model, typical value, CL = 0.14 × (BSA/0.79)^0.89 × (lnAST/3.38)^−0.23): 0.14 L/h
- estimated BSA-normalized CL (clinical; [10]): 0.179 ± 0.03 L/m^2/h
- estimated BSA-normalized CL (clinical; [11]): 0.188 ± 0.03 L/m^2/h
- drug-related adverse events ([5]; 48 caspofungin recipients, standard-dose): we did not find drug-related adverse events
- patients with prophylaxis (favorable) outcome ([5]; 48 children with allo-HSCT, loading dose 70 mg/m^2 followed by 50 mg/m^2): 92%
- MIC90 (C. glabrata [6]): 0.06 µg/mL (≈ 0.0549 µM)
- Fungicidal target AUC24/MIC ratio (C. albicans [7]): 865
- Fungistatic target AUC24/MIC ratio (C. albicans [7]): 748
- Fungicidal target AUC24/MIC ratio (C. glabrata [8]): 450
- Fungistatic target AUC24/MIC ratio (C. glabrata [8]): 96.2
